Our source for the AC50, EC50 and IC50 values is ChEMBL document CHEMBL1201862, “PubChem BioAssay data set” (2004).

The source made the active and inactive calls.

The target in experiment [1] is Heat shock protein HSP 90-alpha (Homo sapiens, UniProt P07900). It counts as functional, organism-based.
For the next experiment, the target named is T1, Hexokinase HKDC1 (Homo sapiens, UniProt Q2TB90).
T1 sequence (Q2TB90 whole entry): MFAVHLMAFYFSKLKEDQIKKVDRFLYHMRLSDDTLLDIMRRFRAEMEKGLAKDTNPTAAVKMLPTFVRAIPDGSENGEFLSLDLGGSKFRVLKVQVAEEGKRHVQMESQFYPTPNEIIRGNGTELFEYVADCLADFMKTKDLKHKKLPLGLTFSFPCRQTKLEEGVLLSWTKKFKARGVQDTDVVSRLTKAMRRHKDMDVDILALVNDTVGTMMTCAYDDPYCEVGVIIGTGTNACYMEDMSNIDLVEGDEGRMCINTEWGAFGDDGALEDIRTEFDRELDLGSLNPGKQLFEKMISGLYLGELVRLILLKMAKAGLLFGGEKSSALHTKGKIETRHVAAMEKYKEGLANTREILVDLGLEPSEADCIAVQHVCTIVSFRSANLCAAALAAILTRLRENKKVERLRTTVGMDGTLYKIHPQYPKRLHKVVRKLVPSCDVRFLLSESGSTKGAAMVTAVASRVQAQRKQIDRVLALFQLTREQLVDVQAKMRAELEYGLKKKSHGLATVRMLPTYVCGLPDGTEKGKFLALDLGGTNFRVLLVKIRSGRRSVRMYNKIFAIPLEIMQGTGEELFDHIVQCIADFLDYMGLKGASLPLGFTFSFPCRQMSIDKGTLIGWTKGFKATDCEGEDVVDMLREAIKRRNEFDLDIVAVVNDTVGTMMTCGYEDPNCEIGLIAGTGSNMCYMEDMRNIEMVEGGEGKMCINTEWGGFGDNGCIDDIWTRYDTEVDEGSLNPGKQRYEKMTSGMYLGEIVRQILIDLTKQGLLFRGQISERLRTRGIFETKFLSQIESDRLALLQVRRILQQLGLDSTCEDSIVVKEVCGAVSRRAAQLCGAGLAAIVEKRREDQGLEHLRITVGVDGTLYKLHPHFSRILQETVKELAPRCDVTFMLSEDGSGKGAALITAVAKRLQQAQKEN
As to the kind of experiment: HKDC1 hexokinase activators, dose response, biochemical, W721R variant (AID 504730). In kind it is functional.

The next experiment addresses Nonstructural protein 1 (Influenza A virus, UniProt Q194T2). It counts as functional, Influenza A virus (A/California/07/2009(H1N1)).
Experiment [2] concerns the target T2, Microphthalmia-associated transcription factor (Homo sapiens, UniProt O75030).
T2 sequence (O75030 whole entry): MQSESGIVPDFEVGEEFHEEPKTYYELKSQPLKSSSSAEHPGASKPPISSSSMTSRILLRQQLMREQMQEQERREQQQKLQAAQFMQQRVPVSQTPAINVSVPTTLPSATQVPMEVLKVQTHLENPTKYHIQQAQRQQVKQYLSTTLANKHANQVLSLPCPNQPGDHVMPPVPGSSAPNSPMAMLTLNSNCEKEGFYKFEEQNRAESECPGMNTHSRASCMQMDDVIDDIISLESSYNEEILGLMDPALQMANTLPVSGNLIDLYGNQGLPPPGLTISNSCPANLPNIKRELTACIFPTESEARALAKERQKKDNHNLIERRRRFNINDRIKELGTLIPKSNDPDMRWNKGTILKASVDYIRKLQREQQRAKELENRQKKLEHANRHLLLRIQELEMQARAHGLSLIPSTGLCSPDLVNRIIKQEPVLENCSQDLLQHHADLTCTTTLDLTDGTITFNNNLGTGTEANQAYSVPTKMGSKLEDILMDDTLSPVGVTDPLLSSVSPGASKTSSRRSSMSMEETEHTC
As to the kind of experiment: TRPM1 promoter luciferase signal decrease, dose response, MITF inhibitor project, cell-based, SK-MEL-5, cherry-picked, set 3 (AID 493073).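 Note: SK-MEL-5 melanoma cells with luciferase driven by the MITF target TRPM1 promoter.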 It counts as functional.

The subject of the next experiment is HEK293. Briefly: inhibitors of LMP1-driven NF-kB reporter, dose response, cell-based, HEK293, luciferase, cherry-pick (AID 588343). In kind it is functional. As to conditions: Homo sapiens.
Experiment [3] has as its target Botulinum neurotoxin type A (Clostridium botulinum (strain Hall / ATCC 3502 / NCTC 13319 / Type A), UniProt P0DPI1). As to the kind of experiment: High-throughput multiplex microsphere dose response for inhibitors of toxin protease, specifically Botulinum neurotoxin light chain A protease, compounds from Cherry Pick 02. In kind it is functional. As to conditions: read-out: EC50_MICROM.

The target in experiment [4] is Botulinum neurotoxin type F (Clostridium botulinum, UniProt P30996). As to the kind of experiment: High-throughput multiplex microsphere dose response for inhibitors of toxin protease, specifically Botulinum neurotoxin light chain F protease, compounds from Cherry Pick 02. In kind it is functional. The following applies: read-out: EC50_MICROM.
Botulinum neurotoxin type F, sequence (P30996 1-436 limits assumed): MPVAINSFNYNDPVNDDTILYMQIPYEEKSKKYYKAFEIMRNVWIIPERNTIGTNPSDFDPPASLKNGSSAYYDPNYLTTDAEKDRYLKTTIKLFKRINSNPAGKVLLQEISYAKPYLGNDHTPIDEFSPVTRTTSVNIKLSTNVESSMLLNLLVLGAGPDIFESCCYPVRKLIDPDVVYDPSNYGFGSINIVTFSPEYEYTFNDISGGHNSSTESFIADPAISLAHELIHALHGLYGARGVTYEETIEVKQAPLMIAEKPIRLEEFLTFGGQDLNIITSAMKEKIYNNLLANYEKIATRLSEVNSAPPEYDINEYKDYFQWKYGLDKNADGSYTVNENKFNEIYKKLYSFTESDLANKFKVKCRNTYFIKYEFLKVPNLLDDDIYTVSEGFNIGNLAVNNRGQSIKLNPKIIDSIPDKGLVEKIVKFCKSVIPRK
Experiment [5] deals with Latent membrane protein 1 (Human herpesvirus 4 (strain B95-8), UniProt P03230). As to the kind of experiment: TES1-eGFP NF-kB reporter inhibition versus Tet-On dsRED, dose response, selectivity assay for LMP1 NF-kB inhibitor project, imaging, HEK293T, dual-color eGFP/dsRED, cherry-picks (AID 588398). It counts as functional, cell-based.
Latent membrane protein 1, sequence (P03230 whole entry): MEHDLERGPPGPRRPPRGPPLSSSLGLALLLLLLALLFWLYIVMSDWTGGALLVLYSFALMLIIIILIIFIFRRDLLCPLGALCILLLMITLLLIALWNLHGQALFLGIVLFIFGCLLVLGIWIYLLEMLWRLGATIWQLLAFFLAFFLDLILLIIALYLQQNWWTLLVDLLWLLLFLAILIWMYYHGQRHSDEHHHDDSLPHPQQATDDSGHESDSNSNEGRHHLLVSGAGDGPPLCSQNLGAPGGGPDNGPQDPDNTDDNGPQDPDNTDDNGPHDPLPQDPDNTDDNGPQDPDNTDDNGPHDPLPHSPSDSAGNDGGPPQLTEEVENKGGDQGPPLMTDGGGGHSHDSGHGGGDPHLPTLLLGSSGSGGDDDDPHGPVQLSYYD
In a further experiment the target is Hexokinase-1 (Homo sapiens, UniProt P19367). As to the kind of experiment: hexokinase 1 activators, dose response, selectivity assay for HKDC1 activator project, biochemical (AID 504762). In kind it is functional.
Hexokinase-1, sequence (P19367 whole entry): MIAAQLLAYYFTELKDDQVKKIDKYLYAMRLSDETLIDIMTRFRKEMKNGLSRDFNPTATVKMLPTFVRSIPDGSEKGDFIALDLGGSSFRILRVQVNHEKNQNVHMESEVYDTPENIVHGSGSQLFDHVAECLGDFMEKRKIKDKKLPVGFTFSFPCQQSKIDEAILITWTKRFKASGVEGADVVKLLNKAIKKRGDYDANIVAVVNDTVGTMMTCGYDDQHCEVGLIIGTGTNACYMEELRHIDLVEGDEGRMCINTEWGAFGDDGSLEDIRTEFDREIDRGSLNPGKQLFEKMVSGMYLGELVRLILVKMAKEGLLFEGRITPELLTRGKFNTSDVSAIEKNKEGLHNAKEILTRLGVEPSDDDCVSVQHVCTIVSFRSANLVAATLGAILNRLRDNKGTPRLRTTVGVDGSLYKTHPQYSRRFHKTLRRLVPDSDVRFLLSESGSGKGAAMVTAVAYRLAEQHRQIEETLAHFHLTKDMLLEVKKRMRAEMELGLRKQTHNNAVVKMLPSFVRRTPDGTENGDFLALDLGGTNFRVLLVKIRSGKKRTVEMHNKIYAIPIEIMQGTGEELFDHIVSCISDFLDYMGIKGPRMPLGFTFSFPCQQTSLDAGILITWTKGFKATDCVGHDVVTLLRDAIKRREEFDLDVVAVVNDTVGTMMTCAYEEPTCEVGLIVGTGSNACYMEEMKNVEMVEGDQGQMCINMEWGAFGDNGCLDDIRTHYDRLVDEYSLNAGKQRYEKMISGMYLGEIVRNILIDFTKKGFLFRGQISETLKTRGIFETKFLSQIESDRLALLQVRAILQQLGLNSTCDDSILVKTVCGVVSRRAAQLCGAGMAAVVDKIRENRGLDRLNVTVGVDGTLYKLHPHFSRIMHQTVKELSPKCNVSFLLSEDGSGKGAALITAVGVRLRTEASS
For a further experiment, the target named is Lethal factor (Bacillus anthracis, UniProt P15917). As to the kind of experiment: High-throughput multiplex microsphere dose response for inhibitors of toxin protease, specifically Lethal Factor protease, compounds from Cherry Pick 02. In kind it is functional. The following applies: read-out: EC50_MICROM.
Lethal factor, sequence (P15917 whole entry): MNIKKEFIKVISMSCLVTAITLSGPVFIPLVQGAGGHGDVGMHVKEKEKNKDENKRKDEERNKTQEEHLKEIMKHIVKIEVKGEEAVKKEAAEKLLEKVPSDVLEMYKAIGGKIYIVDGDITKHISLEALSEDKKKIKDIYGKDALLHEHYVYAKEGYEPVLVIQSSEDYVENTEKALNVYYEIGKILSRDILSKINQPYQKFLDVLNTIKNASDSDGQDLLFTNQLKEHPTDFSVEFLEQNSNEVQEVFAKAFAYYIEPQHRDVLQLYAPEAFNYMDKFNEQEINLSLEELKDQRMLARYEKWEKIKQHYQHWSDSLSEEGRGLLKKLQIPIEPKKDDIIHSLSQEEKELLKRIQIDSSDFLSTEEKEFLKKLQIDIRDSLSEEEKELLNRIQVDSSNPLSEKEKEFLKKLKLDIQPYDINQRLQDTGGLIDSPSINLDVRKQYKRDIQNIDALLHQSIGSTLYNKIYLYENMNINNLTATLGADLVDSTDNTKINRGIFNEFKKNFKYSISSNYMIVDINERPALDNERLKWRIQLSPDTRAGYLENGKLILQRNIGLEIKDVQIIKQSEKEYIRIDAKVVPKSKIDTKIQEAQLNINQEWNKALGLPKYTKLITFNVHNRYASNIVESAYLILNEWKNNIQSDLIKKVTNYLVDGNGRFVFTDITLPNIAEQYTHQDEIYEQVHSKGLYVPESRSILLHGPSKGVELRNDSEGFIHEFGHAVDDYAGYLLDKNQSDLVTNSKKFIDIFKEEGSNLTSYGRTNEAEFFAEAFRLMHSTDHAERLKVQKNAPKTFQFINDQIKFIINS

Nonstructural protein 1, sequence (Q194T2 whole entry): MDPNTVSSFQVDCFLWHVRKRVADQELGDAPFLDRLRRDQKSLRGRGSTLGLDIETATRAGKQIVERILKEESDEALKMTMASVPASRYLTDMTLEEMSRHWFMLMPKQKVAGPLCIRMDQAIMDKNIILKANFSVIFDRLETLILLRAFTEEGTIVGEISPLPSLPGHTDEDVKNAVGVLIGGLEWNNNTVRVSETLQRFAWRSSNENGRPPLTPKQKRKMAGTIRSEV
Botulinum neurotoxin type A, sequence (P0DPI1 2-448 limits assumed): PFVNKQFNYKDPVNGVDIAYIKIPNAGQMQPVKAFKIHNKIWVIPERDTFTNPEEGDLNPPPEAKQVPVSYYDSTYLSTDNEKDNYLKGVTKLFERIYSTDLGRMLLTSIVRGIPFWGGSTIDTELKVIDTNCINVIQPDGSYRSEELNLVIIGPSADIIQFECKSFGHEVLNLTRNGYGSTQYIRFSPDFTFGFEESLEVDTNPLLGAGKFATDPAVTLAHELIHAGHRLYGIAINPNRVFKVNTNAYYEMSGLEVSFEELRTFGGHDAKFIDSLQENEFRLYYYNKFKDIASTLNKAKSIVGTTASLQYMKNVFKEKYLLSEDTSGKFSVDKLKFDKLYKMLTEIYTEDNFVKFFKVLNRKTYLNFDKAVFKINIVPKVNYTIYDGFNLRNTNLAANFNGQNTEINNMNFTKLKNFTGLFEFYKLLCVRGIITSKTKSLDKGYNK

On to `CC(=NNc1nc2ccccc2o1)c1cc2ccccc2cn1`, for which the AC50 (in general, the concentration at which the activity in the assay is half-maximal) in [1] is 16.9 µM (active); in experiment [2] it was 0.175 µM (active); in the experiment on HEK293 it was 0.0887 µM (active); in experiment [5] it was 1.7 µM (active). The EC50 on Hexokinase HKDC1 is 2.24 µM (active); in experiment [3] it was 5.1 µM (active); in experiment [4], 9.4 µM (active); at Hexokinase-1, > 80 µM (inactive); at Lethal factor it was 20 µM (inactive). The IC50 (as a rule, the point on the concentration scale where inhibition reaches its midpoint) at Nonstructural protein 1 is 7.16 µM (active).
